Legend:
Format in all cases: in vivo, Locusta migratoria
locusts = assay: Behavioral arena assay (Pgreg, TDM, TDMV, attraction index); settings: for attraction index: 2 hr after drug injection (L-NAME in G-phase, SNAP in S-phase) or 48 hr after NOS knockdown in G-phase; for behavioral phase state (Pgreg) / total distance moved (TDM) / total duration of movement (TDMV): n ≥ 23
Description: The concentrations of peptides and drugs that were used were determined according to described methods ([[…] and Yates, 2007]; [Van […] et al., 2013b]). […] Working solutions of different concentrations (0.05, 0.5 and 2.5 μg/μl) were injected into the hemolymph in the heads of fourth-instar locusts using a microinjector (2 μl/locust). The arena behavioral assay was conducted 1 hr, 2 hr, and 4 hr following injection. […] Working solution (100 μM) was microinjected into the heads of G-phase locusts (2 μl/locust). SNAP was dissolved with DMSO to prepare 100 mM stock solution. Working solution (200 μM) was microinjected into the heads of S-phase locusts (2 μl/locust). Locust behaviors were tested 2 hr after drug injection. The behavioral assay was performed in a rectangular Perspex arena (40 cm × 30 cm × 10 cm) containing three chambers. The left chamber (7.5 cm × 30 cm × 10 cm) contained 30 fourth-instar G-phase locusts as a stimulus group, and the right chamber was empty (7.5 cm × 30 cm × 10 cm). Locusts behaviors were recorded for 300 s by an EthoVision video tracking system and analyzed according to the binary logistic regression model constructed in our previous work ([Guo et al., 2011]). Details are as follow: […] AI = total duration in stimulus area - total duration in the opposite of stimulus area; this parameter represents the extent to which the tested animals are attracted by the stimulus group. TDMV (total duration of movement) and TDM (total distance moved) indicate the locomotor activity levels. Pgreg indicates the probability that a locust is considered gregarious. […] In the behavioral assay, 16-35 locusts were tested for each treatment according to the sample size reported in previous studies ([Ott et al., 2012]; [Ma et al., 2011]). […] Two hours later, SNAP (200 μM, 2 μl/locust) was injected into the heads of the experimental insects. Control insects were treated with an equal amount of saline. The injected locusts were then raised under the gregarious condition and subjected to behavioral analysis 2 hr after injection of SNAP. For S-phase locusts, […] or […] was microinjected into the brains of fourth-instar S-phase insects. […] The insects treated with dsGFP were used as a control.

NO = NO level in locust brains (Total Nitric Oxide Assay Kit); settings: n = 4 samples
Description: (§1) An enzyme-linked immunosorbent assay (ELISA) kit (R and D Systems, Inc.) was used to detect the relative cAMP level in locust brains. For NO content determination, Total Nitric Oxide Assay Kit (Beyotime) was used. Because NO molecules are unstable, the total NO levels in all test groups were assessed by detecting the content of nitrate and nitrite. The NOS Kit (Nanjing Jiancheng Bioengineering Institute) was used to detect the total NOS activity in locust brains. Protein concentrations were measured using the BicinChoninic Acid (BCA) Protein Assay Kit (Thermo). All of these three measurements were performed according to the manufacturer’s instructions. Each measurement was from at least four biological replicates (12–16 locusts/replicate). Data were normalized to the protein concentration.

NOS = assay: Total NOS activity in locust brains (NOS Kit); settings: n = 4 samples
Description: as §1

[1] = G-phase locusts, 2 hr after injection of L-NAME (100 μM, 2 μl/locust) or 48 hr after NOS knockdown
[2] = S-phase locusts pre-injected with dsNPFR or dsNPYR, 2 hr after L-NAME injection, n ≥ 16
[3] = G-phase locust brains, 2 hr after L-NAME injection or 48 hr after NOS knockdown
[4] = G-phase locusts pre-injected with NPF1a or NPF2 peptide, SNAP 200 μM, 2 μl/locust 2 hr later, tested 2 hr after SNAP, n ≥ 24
[5] = S-phase locusts, 2 hr after injection of SNAP (200 μM, 2 μl/locust)
[6] = S-phase locust brains, 2 hr after SNAP injection

COC(=O)[C@@H](N)CCCNC(N)=N[N+](=O)[O-] [L-NAME, N-Nitro-L-arginine Methyl Ester]
attraction index (locusts): did not change the attraction index
behavioral phase state (Pgreg) (locusts; [1]): S-phase-like behavior
total distance moved (TDM) (locusts; [1]): strongly suppressed
total duration of movement (TDMV) (locusts; [1]): strongly suppressed
Pgreg increase induced by NPFR or NPYR knockdown (locusts; [2]): robustly abolished the increase
total distance moved increase induced by NPFR or NPYR knockdown (locusts; [2]): robustly abolished the increase
total duration of movement increase induced by NPFR or NPYR knockdown (locusts; [2]): robustly abolished the increase
NO levels (NO; [3]): significantly reduced
NOS activity (NOS; [3]): significantly reduced

S-nitroso-N-acetyl-penicillamine [SNAP]
attraction index (locusts): did not change the attraction index
Pgreg, rescue (locusts; [4]): robust recovery
total distance moved, rescue (locusts; [4]): robust recovery
total duration of movement, rescue (locusts; [4]): robust recovery
behavioral phase state (Pgreg) (locusts; [5]): pushed locust behavioral change from S-phase to G-phase state
total distance moved (TDM) (locusts; [5]): enhanced
total duration of movement (TDMV) (locusts; [5]): enhanced
NO levels (NO; [6]): increased
NOS activity (NOS; [6]): without affecting NOS activity

Source: PMC5400507, “The neuropeptide F/nitric oxide pathway is essential for shaping locomotor plasticity underlying locust phase transition” (eLife, 2017)
